Earlier results on one substance are cited in patent US7615533B2, “TPO peptide compounds for treatment of anemia” (Janssen Pharmaceutica N.V., priority 2004, dated 2009).

In the data set the test system is rhesus monkeys exposed to 5 Gy total body irradiation. The following applies: 5 Gy total body irradiation (300-kV x-rays); cited from earlier work.

As for “human recombinant TPO: human recombinant thrombopoietin, glycoprotein; comparator in the reporter assay and cited in the background”, the “reticulocyte regeneration initiated earlier than in placebo-treated animals” value is given as 10 days.
